Where two headings read alike, the source gives them in different places.
What was measured:
U87MG cells [1] = test: Annexin V and 7-AAD staining in U87MG cells (apoptosis); assay type: cell-based, human; conditions: 10 μM, 72 h
Experimental: Dual staining with Annexin V coniugated to fluorescein-isothiocyanate (FITC) and 7-amino-actinomysin (7-AAD) was performed using the commercially available kit (Muse Annexin V and Dead Cell Kit; Merck KGaA, Darmstadt, Germany). U87MG cells or GSCs were treated with DMSO (control), SA16, SA23 or IB35 for 72 h or seven days, respectively. At the end of the treatment periods, the percentages of living, apoptotic and dead cells were acquired and analysed by Muse™ Cell Analyzer as previously described (Daniele, S., et al., Combined inhibition of AKT/mTOR and MDM2 enhances Glioblastoma Multiforme cell apoptosis and differentiation of cancer stem cells. Sci. Rep., 2015. 5.).
It was then investigated whether the reduction in cell proliferation elicited by the PDK1 inhibitors could be associated with apoptosis. U87MG cells were treated for 72 h with DMSO (control), or 10 μM SA16, SA23 or IB35. At the end of the treatment period, the cells were collected, and the level of phosphatidylserine externalisation was evaluated using the Annexin V-staining protocol, as described above (FIG. 3). In FIG. 4 the data are expressed as the percentage of apoptotic cells (the data for the early-stage apoptotic cells shown in white, and the data for the late-stage apoptotic/necrotic cells shown in grey) versus the total number of cells. The data shown represented the mean±SEM of three different experiments. The significance of the differences was determined with a one-way ANOVA with Bonferroni post-test (*** p<0.001 vs. control).

U87MG cells [2] = test: U87MG cell proliferation, MTS assay; assay type: cell-based, human; conditions: for IC50: Homo sapiens, U-87 MG, 72 h, MTS assay
Experimental: The U87MG cell line was obtained from the National Institute for Cancer Research of Genoa (Italy) and cultured in DMEM 10% FBS and 2 mM glutamine. To isolate GSCs, approximately 2.0×10^6 cells were suspended in 1 mL of a defined serum-free Neural Stem Cell (NSC) medium (Daniele, S., et al., Modulation of A1 and A2B adenosine receptor activity: a new strategy to sensitise glioblastoma stem cells to chemotherapy. Cell death & disease, 2014. 5(11): p. e1539). After 3-4 days of culture, the neurospheres were collected, suspended in NSC medium, dissociated into single cells, and plated for the assays. For the long-term treatment of cells, NSC or complete medium containing drugs was replaced every two to three days.
The human U87MG cells or GSCs were seeded at a density of 3×10^3 cells/well. After 24 h, the cells were treated from one to seven days with fresh growth medium containing different concentrations of SA16, SA23 or IB35. Following the treatment period, cell proliferation was determined using the MTS assay according to manufacturer's instruction. The absorbance of formazan at […] was measured in a colorimetric assay with an automated plate reader (Victor Wallac 2, Perkin Elmer). The results were calculated by subtracting the mean background from the values obtained from each evaluation and were expressed as the percentage of the control (untreated cells). Sigmoid dose-response curve was generated, from which the IC50 values were derived.
As representative GBM cell line, the above U87MG cells were used; this human cell line resulted an appropriate model to study the effects of PDK1 inhibition, because it is deficient for the tumour suppressor phosphatase and tensin homologue (PTEN), a negative regulator of the PI3K/AKT pathway (Wang, S. I., et al., Somatic mutations of PTEN in glioblastoma multiforme. Cancer research, 1997. 57(19): p. 4183-4186). To examine the effects of SA16, SA23 and IB35 on GBM cell growth/survival, U87MG cells were incubated with different concentrations of the new compounds (1 nM-10 μM) for 24 and 72 h. Specifically, U87MG cells were treated in complete medium with different concentrations of SA16, SA23 or IB35 (1 nM-10 μM) for 24 h (A) or 72 h (B). At the end of treatment, cell proliferation was measured using the MTS assay. The data are expressed as a percentage with respect to that of untreated cells (control), which was set to 100%, and are the mean values±SEM of three independent experiments, each performed in duplicate. The significance of the differences reported in FIGS. 1 and 2 was determined with a one-way ANOVA with Bonferroni post-test (* p<0.05, **p<0.01, *** p<0.001 vs. control cells).

[3] = molecular target: MAPK14 (p38 alpha) Direct (Homo sapiens (Human), UniProt Q16539); test: IB35 kinases profiling at 100 nM (ZLYTE); assay type: biochemical; conditions: IB35 100 nM, ATP Km app
Sequence of MAPK14 (p38 alpha) Direct (Q16539 whole entry): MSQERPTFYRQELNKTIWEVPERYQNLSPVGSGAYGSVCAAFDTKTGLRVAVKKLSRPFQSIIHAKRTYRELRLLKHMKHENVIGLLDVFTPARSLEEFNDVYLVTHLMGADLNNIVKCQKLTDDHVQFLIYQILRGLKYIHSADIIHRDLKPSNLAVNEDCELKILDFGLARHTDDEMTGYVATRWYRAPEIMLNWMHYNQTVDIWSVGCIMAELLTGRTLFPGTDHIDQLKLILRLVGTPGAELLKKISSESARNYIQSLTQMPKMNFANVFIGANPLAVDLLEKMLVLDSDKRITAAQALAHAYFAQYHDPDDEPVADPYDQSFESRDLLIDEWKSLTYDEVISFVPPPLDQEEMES
From the text: (§1) The results are reported below

ROCK2 = ROCK2 (Homo sapiens (Human), UniProt O75116); test: IB35 kinases profiling at 100 nM (ZLYTE); assay type: biochemical; conditions: IB35 100 nM, ATP Km app
Sequence of ROCK2 (O75116 whole entry, species assumed): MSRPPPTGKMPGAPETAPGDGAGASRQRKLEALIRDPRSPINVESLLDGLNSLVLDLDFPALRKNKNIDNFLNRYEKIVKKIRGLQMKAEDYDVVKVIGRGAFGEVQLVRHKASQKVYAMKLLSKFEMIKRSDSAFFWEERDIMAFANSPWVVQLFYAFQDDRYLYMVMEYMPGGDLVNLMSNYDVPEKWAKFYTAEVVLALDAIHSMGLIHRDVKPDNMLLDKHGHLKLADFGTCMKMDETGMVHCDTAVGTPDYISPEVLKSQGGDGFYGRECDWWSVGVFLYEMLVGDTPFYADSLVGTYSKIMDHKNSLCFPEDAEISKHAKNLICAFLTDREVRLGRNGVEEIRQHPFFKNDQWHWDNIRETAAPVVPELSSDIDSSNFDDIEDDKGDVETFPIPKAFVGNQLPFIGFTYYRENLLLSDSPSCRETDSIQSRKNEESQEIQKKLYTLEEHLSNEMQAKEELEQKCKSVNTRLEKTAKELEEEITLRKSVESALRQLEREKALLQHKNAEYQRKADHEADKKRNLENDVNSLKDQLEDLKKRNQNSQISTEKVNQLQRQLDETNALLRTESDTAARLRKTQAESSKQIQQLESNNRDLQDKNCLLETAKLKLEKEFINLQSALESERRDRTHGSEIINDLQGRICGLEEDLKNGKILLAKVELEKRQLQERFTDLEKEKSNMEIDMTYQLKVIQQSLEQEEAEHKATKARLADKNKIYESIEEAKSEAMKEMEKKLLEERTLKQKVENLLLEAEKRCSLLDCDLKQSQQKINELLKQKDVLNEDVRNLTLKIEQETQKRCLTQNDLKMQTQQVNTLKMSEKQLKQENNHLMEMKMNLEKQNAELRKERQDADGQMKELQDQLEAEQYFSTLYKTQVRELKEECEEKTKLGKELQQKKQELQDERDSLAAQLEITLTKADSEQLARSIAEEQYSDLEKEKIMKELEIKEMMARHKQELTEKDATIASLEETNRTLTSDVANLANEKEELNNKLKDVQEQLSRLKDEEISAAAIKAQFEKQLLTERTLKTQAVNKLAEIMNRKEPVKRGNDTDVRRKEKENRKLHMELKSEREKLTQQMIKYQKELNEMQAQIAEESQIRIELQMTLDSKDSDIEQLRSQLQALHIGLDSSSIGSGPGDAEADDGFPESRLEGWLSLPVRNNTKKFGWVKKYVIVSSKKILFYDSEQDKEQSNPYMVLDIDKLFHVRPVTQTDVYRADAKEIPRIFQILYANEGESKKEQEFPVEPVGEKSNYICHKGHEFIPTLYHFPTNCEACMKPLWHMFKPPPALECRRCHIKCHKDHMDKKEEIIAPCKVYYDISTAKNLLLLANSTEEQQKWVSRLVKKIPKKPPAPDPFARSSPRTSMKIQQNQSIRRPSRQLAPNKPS
From the text: as §1

PRKCZ (PKC zeta) = PRKCZ (PKC zeta) (Homo sapiens (Human), UniProt Q05513); test: IB35 kinases profiling at 100 nM (ZLYTE); assay type: biochemical; conditions: IB35 100 nM, ATP Km app
From the text: as §1

MAPK3 (ERK1) = MAPK3 (ERK1) (Homo sapiens (Human), UniProt P27361); test: IB35 kinases profiling at 100 nM (ZLYTE); assay type: biochemical; conditions: IB35 100 nM, ATP Km app
Sequence of MAPK3 (ERK1) (P27361 whole entry, species assumed): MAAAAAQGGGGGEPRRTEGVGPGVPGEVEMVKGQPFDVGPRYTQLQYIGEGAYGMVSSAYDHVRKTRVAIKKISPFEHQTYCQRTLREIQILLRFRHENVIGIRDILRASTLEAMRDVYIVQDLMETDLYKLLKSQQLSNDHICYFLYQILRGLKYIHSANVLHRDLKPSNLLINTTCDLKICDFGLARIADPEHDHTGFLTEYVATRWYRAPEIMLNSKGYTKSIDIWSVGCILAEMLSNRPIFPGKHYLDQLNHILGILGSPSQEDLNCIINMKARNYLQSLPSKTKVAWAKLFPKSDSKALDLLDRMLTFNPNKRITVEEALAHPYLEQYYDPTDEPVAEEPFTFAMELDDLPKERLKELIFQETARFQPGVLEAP
From the text: as §1

PRKCD (PKC delta) = PRKCD (PKC delta) (Homo sapiens (Human), UniProt Q05655); test: IB35 kinases profiling at 100 nM (ZLYTE); assay type: biochemical; conditions: IB35 100 nM, ATP Km app
From the text: as §1

RAF1 (cRAF) Y340D Y341D = RAF1 (cRAF) Y340D Y341D (Homo sapiens (Human), UniProt P04049, Y340D/Y341D); test: IB35 kinases profiling at 100 nM (ZLYTE); assay type: biochemical; conditions: IB35 100 nM, ATP 100
From the text: as §1

RPS6KA1 (RSK1) = RPS6KA1 (RSK1) (Homo sapiens (Human), UniProt Q15418); test: IB35 kinases profiling at 100 nM (ZLYTE); assay type: biochemical; conditions: IB35 100 nM, ATP Km app
Sequence of RPS6KA1 (RSK1) (Q15418 whole entry, species assumed): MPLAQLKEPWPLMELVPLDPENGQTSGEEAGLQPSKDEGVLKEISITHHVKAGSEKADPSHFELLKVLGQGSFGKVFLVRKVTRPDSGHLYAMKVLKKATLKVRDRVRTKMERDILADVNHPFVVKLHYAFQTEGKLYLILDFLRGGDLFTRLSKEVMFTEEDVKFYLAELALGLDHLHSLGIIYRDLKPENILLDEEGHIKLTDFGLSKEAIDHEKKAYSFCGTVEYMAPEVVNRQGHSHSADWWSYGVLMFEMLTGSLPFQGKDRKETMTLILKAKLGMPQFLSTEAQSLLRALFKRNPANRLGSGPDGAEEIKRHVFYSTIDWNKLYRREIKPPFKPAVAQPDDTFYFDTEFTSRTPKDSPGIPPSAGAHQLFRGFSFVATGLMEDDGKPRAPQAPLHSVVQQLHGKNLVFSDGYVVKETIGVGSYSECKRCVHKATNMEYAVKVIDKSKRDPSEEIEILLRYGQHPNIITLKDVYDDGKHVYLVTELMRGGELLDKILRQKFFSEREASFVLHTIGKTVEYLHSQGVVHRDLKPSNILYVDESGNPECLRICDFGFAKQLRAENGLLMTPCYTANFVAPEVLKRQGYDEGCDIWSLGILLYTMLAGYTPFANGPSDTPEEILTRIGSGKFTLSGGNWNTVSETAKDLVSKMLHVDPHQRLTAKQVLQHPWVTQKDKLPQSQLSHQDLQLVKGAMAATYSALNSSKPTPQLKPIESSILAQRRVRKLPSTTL
From the text: as §1

AMPK A1/B1/G1 = AMPK A1/B1/G1 (Homo sapiens (Human), UniProt Q13131); test: IB35 kinases profiling at 100 nM (ZLYTE); assay type: biochemical; conditions: IB35 100 nM, ATP Km app
Sequence of AMPK A1/B1/G1 (Q13131 whole entry): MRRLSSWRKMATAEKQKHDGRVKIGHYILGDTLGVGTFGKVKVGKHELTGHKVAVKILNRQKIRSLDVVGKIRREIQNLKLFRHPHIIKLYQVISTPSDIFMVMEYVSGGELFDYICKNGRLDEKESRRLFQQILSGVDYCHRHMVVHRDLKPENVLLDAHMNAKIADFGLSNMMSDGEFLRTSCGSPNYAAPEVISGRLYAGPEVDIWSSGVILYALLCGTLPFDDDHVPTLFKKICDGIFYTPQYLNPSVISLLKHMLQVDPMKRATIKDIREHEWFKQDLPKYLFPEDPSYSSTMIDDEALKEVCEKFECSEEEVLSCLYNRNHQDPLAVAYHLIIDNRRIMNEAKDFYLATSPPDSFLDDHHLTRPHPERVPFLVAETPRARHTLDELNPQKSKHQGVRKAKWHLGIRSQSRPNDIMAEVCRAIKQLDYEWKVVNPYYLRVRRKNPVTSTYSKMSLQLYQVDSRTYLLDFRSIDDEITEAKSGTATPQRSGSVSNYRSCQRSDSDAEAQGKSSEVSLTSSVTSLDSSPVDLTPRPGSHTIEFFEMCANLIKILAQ
Sequence of AMPK A1/B1/G1 (Q9Y478 whole entry partner): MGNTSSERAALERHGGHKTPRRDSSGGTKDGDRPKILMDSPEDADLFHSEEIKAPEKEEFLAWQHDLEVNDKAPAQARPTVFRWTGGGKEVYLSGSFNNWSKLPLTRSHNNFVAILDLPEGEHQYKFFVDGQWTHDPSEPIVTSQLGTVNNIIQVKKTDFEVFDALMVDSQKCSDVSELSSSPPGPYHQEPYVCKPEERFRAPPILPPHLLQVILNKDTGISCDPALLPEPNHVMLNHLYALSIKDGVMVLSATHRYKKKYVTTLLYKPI
Sequence of AMPK A1/B1/G1 (P54619 whole entry partner): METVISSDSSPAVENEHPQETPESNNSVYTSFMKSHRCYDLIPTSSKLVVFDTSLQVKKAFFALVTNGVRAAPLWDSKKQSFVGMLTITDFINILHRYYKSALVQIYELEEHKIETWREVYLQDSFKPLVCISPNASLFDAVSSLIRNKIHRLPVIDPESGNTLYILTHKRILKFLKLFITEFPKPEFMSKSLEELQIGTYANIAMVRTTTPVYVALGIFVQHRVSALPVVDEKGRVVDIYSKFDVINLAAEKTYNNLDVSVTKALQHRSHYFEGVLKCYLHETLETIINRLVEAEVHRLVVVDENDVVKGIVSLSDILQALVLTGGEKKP
From the text: as §1

PAK6 = PAK6 (Homo sapiens (Human), UniProt Q9NQU5); test: IB35 kinases profiling at 100 nM (ZLYTE); assay type: biochemical; conditions: IB35 100 nM, ATP Km app
From the text: as §1

BTK = BTK (Homo sapiens (Human), UniProt Q06187); test: IB35 kinases profiling at 100 nM (ZLYTE); assay type: biochemical; conditions: IB35 100 nM, ATP Km app
Sequence of BTK (Q06187 whole entry): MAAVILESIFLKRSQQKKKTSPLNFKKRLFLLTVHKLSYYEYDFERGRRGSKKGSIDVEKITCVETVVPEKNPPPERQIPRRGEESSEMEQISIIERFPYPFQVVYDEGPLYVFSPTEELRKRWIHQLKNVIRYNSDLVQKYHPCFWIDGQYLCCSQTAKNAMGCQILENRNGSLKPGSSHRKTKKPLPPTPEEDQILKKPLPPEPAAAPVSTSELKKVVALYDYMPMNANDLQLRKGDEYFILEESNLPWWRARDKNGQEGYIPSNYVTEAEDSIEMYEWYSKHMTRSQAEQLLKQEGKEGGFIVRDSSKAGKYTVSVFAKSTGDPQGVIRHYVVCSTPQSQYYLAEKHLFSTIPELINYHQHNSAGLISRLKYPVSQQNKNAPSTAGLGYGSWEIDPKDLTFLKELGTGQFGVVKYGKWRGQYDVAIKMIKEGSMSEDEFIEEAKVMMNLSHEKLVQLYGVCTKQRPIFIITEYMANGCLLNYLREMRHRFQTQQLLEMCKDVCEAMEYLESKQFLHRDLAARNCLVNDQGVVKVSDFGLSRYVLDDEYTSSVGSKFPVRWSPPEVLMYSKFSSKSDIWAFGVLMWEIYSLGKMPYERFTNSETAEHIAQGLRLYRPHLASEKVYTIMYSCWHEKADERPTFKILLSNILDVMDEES
From the text: as §1

With O=C(CNC(=O)c1cccn(Cc2ccc(F)c(F)c2)c1=O)Nc1ccc2c(c1)/C(=C/c1cnc[nH]1)C(=O)N2 [IB35, (Z)—N-(2-((3-((1H-imidazol-5-yl)methylene)-2-oxoindolin-5-yl)amino)-2-oxoethyl)-1-(3,4-difluorobenzyl)-2-oxo-1,2-dihydro pyridine-3-carboxamide] the “percentage of total apoptotic cells” value (U87MG cells [1]) was 23.0±1.9%, the “phosphatidylserine externalization (early and late apoptosis/death)” value (U87MG cells [1]) was “significant phosphatidylserine externalization” and the “inhibition of U87MG cell proliferation” value (U87MG cells [2]; 24 h, higher effect observed (1 nM-10 μM tested)) was 41%. For the same compound, the IC50 (U87MG cells [2]; read-out: IC50 U87MG) was 450 ± 46.2 nM, the inhibition at 0.1 µM ([3]; read-out: % Inhibition 1) was 2% and the inhibition at 0.1 µM ([3]; read-out: % Inhibition 2) was 4%. The inhibition at 0.1 µM ([3]; read-out: % Inhibition Avg) was 3%, the inhibition at 0.1 µM (ROCK2; read-out: % Inhibition 1) was 3% and the inhibition at 0.1 µM (ROCK2; read-out: % Inhibition 2) was 1%. It also gave an inhibition at 0.1 µM (ROCK2; read-out: % Inhibition Avg) of 2%, an inhibition at 0.1 µM (PRKCZ (PKC zeta); read-out: % Inhibition 1) of -3% and an inhibition at 0.1 µM (PRKCZ (PKC zeta); read-out: % Inhibition 2) of -2%. It also gave an inhibition at 0.1 µM (PRKCZ (PKC zeta); read-out: % Inhibition Avg) of -3%, an inhibition at 0.1 µM (MAPK3 (ERK1); read-out: % Inhibition 1) of -8% and an inhibition at 0.1 µM (MAPK3 (ERK1); read-out: % Inhibition 2) of 1%. It also gave an inhibition at 0.1 µM (MAPK3 (ERK1); read-out: % Inhibition Avg) of -3%, an inhibition at 0.1 µM (PRKCD (PKC delta); read-out: % Inhibition 1) of -2% and an inhibition at 0.1 µM (PRKCD (PKC delta); read-out: % Inhibition 2) of -12%. For the same compound, the inhibition at 0.1 µM (PRKCD (PKC delta); read-out: % Inhibition Avg) was -7%, the inhibition at 0.1 µM (RAF1 (cRAF) Y340D Y341D; read-out: % Inhibition 1) was 10% and the inhibition at 0.1 µM (RAF1 (cRAF) Y340D Y341D; read-out: % Inhibition 2) was 11%. For the same compound, the inhibition at 0.1 µM (RAF1 (cRAF) Y340D Y341D; read-out: % Inhibition Avg) was 10%, the inhibition at 0.1 µM (RPS6KA1 (RSK1); read-out: % Inhibition 1) was -3% and the inhibition at 0.1 µM (RPS6KA1 (RSK1); read-out: % Inhibition 2) was 7%. The inhibition at 0.1 µM (RPS6KA1 (RSK1); read-out: % Inhibition Avg) was 2%, the inhibition at 0.1 µM (AMPK A1/B1/G1; read-out: % Inhibition 1) was 8% and the inhibition at 0.1 µM (AMPK A1/B1/G1; read-out: % Inhibition 2) was 7%. The inhibition at 0.1 µM (AMPK A1/B1/G1; read-out: % Inhibition Avg) was 7%, the inhibition at 0.1 µM (PAK6; read-out: % Inhibition 1) was 1% and the inhibition at 0.1 µM (PAK6; read-out: % Inhibition 2) was -9%. It also gave an inhibition at 0.1 µM (PAK6; read-out: % Inhibition Avg) of -4%, an inhibition at 0.1 µM (BTK; read-out: % Inhibition 1) of -4% and an inhibition at 0.1 µM (BTK; read-out: % Inhibition 2) of -2%. It also gave an inhibition at 0.1 µM (BTK; read-out: % Inhibition Avg) of -3%.

With O=C1Nc2ccc(NC(=O)[C@H](NC(=O)c3cccn(Cc4ccc(F)c(F)c4)c3=O)c3ccccc3)cc2/C1=C/c1ncc[nH]1 [SA23, (Z)—(R)—N-(2-((3-((1H-imidazol-2-yl)methylene)-2-oxoindolin-5-yl)amino)-2-oxo-1-phenylethyl)-1-(3,4-difluorobenzyl)-2-oxo-1,2-dihydropyridine-3-carboxamide] the “phosphatidylserine externalization (early and late apoptosis/death)” value (U87MG cells [1]) was “significant phosphatidylserine externalization”, the IC50 (U87MG cells [2]; read-out: IC50 U87MG) was 1170 ± 100 nM and the IC50 (U87MG cells [2]; read-out: IC50 U87MG cell proliferation) was 1170 ± 100 nM.
